Experimental data from patent publication US20090215729A1, “MICROPARTICLE COMPOSITIONS TO MODIFY CANCER PROMOTING CELLS” (priority 2008, published 2009).

System: 4t1-luc cancer cells
Assay: syngeneic 4t1 mouse model of breast cancer, tumor volume growth
Type: in vivo
Details: Balb/c mice, tail vein injection 100 microliters, six administrations, twice a week starting day 1 after tumor challenge, caliper measurements, relative to PBS control
Method: In vivo testing was done with a syngeneic 4t1 model of breast cancer in immuno-competent Balb/c mice. […] Briefly, primary tumors were established in mammary tissue of 6 week old Balb/c mice by injection of 106 4t1-12B cells subcutaneously under the nipple. The mice were kept in standard housing and with a normal diet. Each group of mice (6-10 per group, 20 g±10% body weight) were injected (100 microliters) 2 times per week through the tail vein for a period of 3 weeks, starting either on day one or day six after the tumor challenge. Clodronate solution was dissolved in PBS and given intravenously starting on day one after tumor challenge. Control mice were injected intravenously through the tail vein with PBS. Tumor growth was measured in a blinded fashion with a caliper each week and tumor volumes were calculated using the measured dimensions. Body weights were recorded weekly, and mice were sacrificed on day 34.

## O=P(O)(O)C(Cl)(Cl)P(=O)(O)O [Clodronate (5.6 mg/mL) in PBS, clodronate]
  tumor volume growth of 4t1-luc cancer cells: did not inhibit the growth of 4 μl tumors relative to PBS control
Listed as clodronate solution
  tumor volume growth of 4t1-luc cancer cells: unable to inhibit growth of 4 μl tumors as effectively as clodronate-hydroxyapatite
